Consider three compounds from US20110034990A1, “BIOCORRODIBLE IMPLANT WITH ACTIVE COATING” (priority 2009, published 2011).

The text on this data set: It has been discovered that squalene is a particularly suitable substance for use in some invention embodiments. […] Thus, for example, lycopene and ubichinon are toxic in concentrations of 10 μmol/l. Squalene, on the other hand, is not toxic, even in concentrations of 100 μmol/l.
As to `CC(C)=CCCC(C)=CCCC(C)=CCCC=C(C)CCC=C(C)CCC=C(C)C` [Squalene, 2,6,10,15,19,23-hexamethyl-2,6,10,14,18,22-tetracosahexaene], the “concentration at which the substance is toxic” value (shortened to “concentration”) was above 100 µmol/L.
`CC(C)=CCC/C(C)=C/C=C/C(C)=C/C=C/C(C)=C/C=C/C=C(C)/C=C/C=C(C)/C=C/C=C(\C)CCC=C(C)C` [lycopene]: the “concentration” value was 10 µmol/L.
For ubichinon, the “concentration” value was found to be 10 µmol/L.
